Reference: patent US4173481A (priority 1976, dated 1979)

Tests used:
[1] = Photographic properties (fog, relative sensitivity, maximum density of the magenta dye image); conditions: 1.5 g per 100 g of dry gelatin, Table 1; for Relative Sensitivity: control = 100; for Maximum Density: magenta dye image
Protocol: A silver iodobromide emulsion containing 6.0 mol % of silver iodide was optimally ripened using a sulfur-containing sensitizer and a gold sensitizer to prepare a high speed negative emulsion. To the emulsion were added anhydro-5,5'-tetrachloro-1,1'-diethyl-3,3'-di-(3-sulfopropyl)-benzimidazolocarbocyanine hydroxide as a spectral sensitizer, 4-hydroxy-6-methyl-1,3,3a,7-tetrazaindene as a stabilizer, and 1-(2,4,6-trichlorophenyl)-3-[3-(2,4-di-tert-amylphenoxyacetamide)benzamido]-5-pyrazolone (which was dissolved in tricresyl phosphate and ethyl acetate and dispersed in gelatin with sodium dodecylbenzenesulfonate) as a magenta color forming coupler to prepare an emulsion for a green-sensitivelayer of a color negative light-sensitive material. The emulsion thus-obtained was divided into four portions and a first portion was used as control. To the other three portions were added an aqueous solution of Compound 1 of the present invention, dimethylol urea (Compound A) and mucochloric acid (Compound B), respectively, in an amount of 1.5 g per 100 g of dry gelatin. Each emulsion was coated on a subbed cellulose triacetate support in a coated coupler amount of 1.5×10^-3 mol/m^2 and dried.
These samples were exposed to green light using an NSG II type sensitometer and processed according to the color processing procedure as described in Example 1 of Japanese patent application (OPI) No. 51940/1976 as follows.
The density of the magenta dye image thus-obtained was measured and fog, relative sensitivity and maximum density were determined.

[2] = Strength of gelatin layer surface; conditions: 65% RH, 5×10^-5 mol per g of dry gelatin
Protocol: A sample was immersed in water at 25° C. for 5 minutes. A pin equipped with a steel ball having a radius of 0.2 mm on the point thereof was pressed on the surface of the sample and the pin was moved at a rate of 5 mm per second on the surface of the sample while the load applied to the pin was continuously varied in the range of 0 to 100 g. The load (g) at which a scratch occurred on the surface was measured.
A 5% solution of gelatin was divided into four portions, a first portion was used as a control and to the other three portions were added Compound 1 of the present invention, Compound B and Compound E in an amount of 5×10^-5 mol per g of dry gelatin, respectively. Each gelatin solution was coated on a subbed polyester film support and dried.
After storing the samples obtained under conditions of 25° C., 65% RH, the strength of the gelatin layer surface thereof was determined.

[3] = Melting Time in 0.2 N aqueous sodium hydroxide at 60° C.; conditions: 0.2 N NaOH
Protocol: An emulsion for a green-sensitive layer of a color negative light-sensitivematerial obtained in the same manner as described in Example 1 was divided into four portions, a first portion was used as a control. To the other three portions were added an aqueous solution of Compound 1, 1,3,5-tris(β-vinylsulfonylpropyl)hexahydro-s-triazine (Compound C), bis(vinylsulfonylmethyl) ether (Compound D) in an amount of 1.5 g per 100 g of dry gelatin, respectively. Each emulsion was coated on a subbed polyethylene terephthalate support at a thickness of 5μ and dried.
The strength of the layer was determined using the two methods described below with samples stored at 25° C., 65% RH for 2 days or for 20 days and a sample heat treated at 50° C., 80% RH for 2 days.
A sample strip was immersed in a 0.2 N aqueous solution of sodium hydroxide at 60° C. and the time (min) when the emulsion layer began to melt was measured.

Question: For `O=C/C(Cl)=C(/Cl)C(=O)O` [Compound B, mucochloric acid], which Fog [1] is on record?
Answer: 0.14

Question: And the “Relative Sensitivity” value [1]?
Answer: 85

Question: And the “Maximum Density” value [1]?
Answer: 2.70

Question: What about the “Strength of Layer Surface” value ([2]; 2 Days at 25° C.) of the same molecule?
Answer: 21 g

Question: What about the “Strength of Layer Surface” value ([2]; 7 Days at 25° C.) of the same molecule?
Answer: 36 g

Question: And the “Strength of Layer Surface” value ([2]; 14 Days at 25° C.)?
Answer: 45 g

Question: And the “Strength of Layer Surface” value ([2]; 21 Days at 25° C.)?
Answer: 52 g

Question: What does the source list for `C=CS(=O)(=O)CC(O)CS(=O)(=O)C=C` [Compound 1, 1,3-bis(Vinylsulfonyl)-2-propanol]?
Answer: Fog [1]: 0.10; Relative Sensitivity [1]: 92; Maximum Density [1]: 2.80; Melting Time ([3]; 2 Days Heated, 50° C., 80% RH): 30 min; Melting Time ([3]; 2 Days at 25° C., 65% RH): 13.5 min; Melting Time ([3]; 20 Days at 25° C., 65% RH): 27 min; Strength of Layer Surface ([2]; 2 Days at 25° C.): 48 g; Strength of Layer Surface ([2]; 7 Days at 25° C.): 56 g; Strength of Layer Surface ([2]; 14 Days at 25° C.): 58 g; Strength of Layer Surface ([2]; 21 Days at 25° C.): 60 g

Question: Which results are given for `C=CS(=O)(=O)CCS(=O)(=O)C=C` [Compound E, 1,2-bis(vinylsulfonyl)ethane]?
Answer: Strength of Layer Surface ([2]; 2 Days at 25° C.): 18 g; Strength of Layer Surface ([2]; 7 Days at 25° C.): 25 g; Strength of Layer Surface ([2]; 14 Days at 25° C.): 32 g; Strength of Layer Surface ([2]; 21 Days at 25° C.): 36 g

Question: With “1,3,5-tris(β-vinylsulfonylpropyl)hexahydro-s-triazine [Compound C]” as the molecule, how does the “Melting Time” value ([3]; 2 Days Heated, 50° C., 80% RH) read?
Answer: 3 min

Question: What about the “Melting Time” value ([3]; 2 Days at 25° C., 65% RH) of the same molecule?
Answer: 1 min

Question: And the “Melting Time” value ([3]; 20 Days at 25° C., 65% RH)?
Answer: 2.5 min
